Structures can show the parent of a compound that is named as a salt.

The subject of data set [1] is passive cutaneous anaphylaxis (PCA) in rats. As to the kind of experiment: 48 hr homologous passive cutaneous anaphylaxis (PCA) in rats. The data set is classed as in vivo, male Wistar rats. The note with it: 1 hr prior to challenge with antigen; for inhibition in vivo at 1 mg/kg: Rattus norvegicus, po, read-out: the percent inhibition of PCA in rats. Here is the method:
The following compounds were used as the reference compounds. 1.48 hr homologous passive cutaneous anaphylaxis (PCA) in rats a) Preparation of DNP-As and rat anti-DNP-As serum Ascaris extract coupled with 2,4-dinitrophenyl group (DNP-As) was prepared by the method of Koda et al. (Folia pharmacol. japon., 78, 319-334, 1981) and anti-DNP-As containing IgE antibody serum was prepared by the method of Tada and Okumura (J. Immunol., 106, 1019-1025, 1971). […] b) 48 hr homologous passive cutaneous anaphylaxis (PCA) in rats Male Wistar rats weighing 160 to 220 g were sensitized passively by intradermal injection in the back, of 0.05 ml of anti-DNP-As serum, diluted 21-fold with saline. […] After additional thirty minutes, the animals were killed by stunning and the skins were removed. The intensity of the response was evaluated by assaying the amount of dye leaked according to the method of Katayama et al. (Microbiol. Immunol., 22, 89-101, 1978). […] Test compounds were given orally in a dose 1.0 mg/kg 1 hr prior to challenge with antigen. As a control, 5 ml/kg of vehicle (0.5% CMC) alone were given in a similar manner.

The test system of data set [2] is hexobarbital-induced anesthesia in mice. Further details: species or system male ddY mice. The note with it: mouse, in vivo. From the text: The results of 48 hr homologous passive cutaneous anaphylaxis (PCA) in rats with the monitoring of antiallergic activity and potentiation of hexobarbital-induced anesthesia in mice with the monitoring of central nervous depressive activity are summarized in Table 1. The following compounds were used as the reference compounds.
2. Potentiation of hexobarbital-induced anesthesia in mice
The loss of righting reflex induced by hexobarbital was used as an index of anesthesia. Groups of eight male ddY mice (20-24 hr fasted) weighing 19 to 27 g were treated orally with the test compounds (30 mg/kg) or vehicle. Thirty minutes later, 80 mg/kg of hexobarbital sodium were injected i.p. to the animals and the duration of loss of righting reflex was observed. The percent increase of sleeping time was calculated using the following formula: [formula]

Consider `COC(=O)CCCCCN1CCC(OC(c2ccccc2)c2ccc(C)cc2)CC1.Cl` (racemic) [Example 1, (±)-Methyl 4-[(4-methylphenyl)phenylmethoxy]-1-piperidinecaproate hydrochloride], for which the inhibition in vivo at 1 mg/kg in data set [1] is 77%. Further, the “the percent increase of hexobarbital-induced anesthesia in mice” value (shortened to “the percent increase”) in data set [2] was determined as 16%.

For the compound `Cc1ccc(C(OC2CCN(CCCCCC(=O)O)CC2)c2ccccc2)cc1.Cl` (racemic) [Example 64, (±)-4-[(4-Methylphenyl)phenylmethoxy]-1-piperidinecaproic acid hydrochloride], in data set [1], the inhibition in vivo at 1 mg/kg is 68%. The “the percent increase” value in data set [2] is recorded as -8%.

Consider `Cc1ccc(C(OC2CCN(CCC(=O)O)CC2)c2ccccc2)cc1.Cl` (racemic) [Example 70, (±)-4-[(4-Methylphenyl)phenylmethoxy]-1-piperidinepropionic acid hydrochloride], for which the inhibition in vivo at 1 mg/kg in data set [1] was 51%. For the same compound, the “the percent increase” value in data set [2] is recorded as -2%.

With `Cc1ccc(C(OC2CCN(CCCC(=O)O)CC2)c2ccccc2)cc1.Cl` (racemic) [Example 71, (±)-4-[(4-Methylphenyl)phenylmethoxy]-1-piperidinebutyric acid hydrochloride], in data set [1], the inhibition in vivo at 1 mg/kg came out at 65%. For the same compound, the “the percent increase” value in data set [2] came to 3%.

As to `Cc1ccc(C(OC2CCN(CCCCC(=O)O)CC2)c2ccccc2)cc1.Cl` (racemic) [Example 72, (±)-4-[(4-Methylphenyl)phenylmethoxy]-1-piperidinevaleric acid hydrochloride], in data set [1], the inhibition in vivo at 1 mg/kg stood at 63%. Also, in data set [2], the “the percent increase” value is 12%.

As for `Cc1ccc(C(OC2CCN(CCCCCCC(=O)O)CC2)c2ccccc2)cc1.Cl` (racemic) [Example 73, (±)-4-[(4-Methylphenyl)phenylmethoxy]-1-piperidineheptanoic acid hydrochloride], in data set [1], the inhibition in vivo at 1 mg/kg turned out to be 67%. Also, in data set [2], the “the percent increase” value is 2%.

On to `Cc1ccc(C(OC2CCN(CCCCCCCC(=O)O)CC2)c2ccccc2)cc1.Cl` (racemic) [Example 74, (±)-4-[(4-Methylphenyl)phenylmethoxy]-1-piperidineoctanoic acid hydrochloride], for which, in data set [1], the inhibition in vivo at 1 mg/kg was found to be 59%. Moreover, in data set [2], the “the percent increase” value was determined as 21%.

With `CCc1ccc(C(OC2CCN(CCCCCC(=O)O)CC2)c2ccccc2)cc1.Cl` (racemic) [Example 77, (±)-4-[(4-Ethylphenyl)phenylmethoxy]-1-piperidinecaproic acid hydrochloride], in data set [1], the inhibition in vivo at 1 mg/kg was found to be 68%. Moreover, in data set [2], the “the percent increase” value is 24%.

As to `COc1ccc(C(OC2CCN(CCC(=O)O)CC2)c2ccccc2)cc1.Cl` (racemic) [Example 86, (±)-4-[(4-Methoxyphenyl)phenylmethoxy]-1-piperidinepropionic acid hydrochloride], in data set [1], the inhibition in vivo at 1 mg/kg stood at 60%. Besides, the “the percent increase” value in data set [2] was determined as 4%.

In the case of `COc1ccc(C(OC2CCN(CCCC(=O)O)CC2)c2ccccc2)cc1.Cl` (racemic) [Example 87, (±)-4-[(4-Methoxyphenyl)phenylmethoxy]-1-piperidinebutyric acid hydrochloride], the inhibition in vivo at 1 mg/kg in data set [1] came to 54%. For the same compound, the “the percent increase” value in data set [2] is reported as 18%.

On to `COc1ccc(C(OC2CCN(CCCCCC(=O)O)CC2)c2ccccc2)cc1.Cl` (racemic) [Example 89, (±)-4-[(4-Methoxyphenyl)phenylmethoxy]-1-piperidinecaproic acid hydrochloride], for which the inhibition in vivo at 1 mg/kg in data set [1] turned out to be 71%. Moreover, in data set [2], the “the percent increase” value was 20%.

As for `Cl.O=C(O)CCCN1CCC(OC(c2ccccc2)c2ccccc2Cl)CC1` (racemic) [Example 112, (±)-4-[(2-Chlorophenyl)phenylmethoxy]-1-piperidinebutyric acid hydrochloride], the inhibition in vivo at 1 mg/kg in data set [1] was 53%. For the same compound, the “the percent increase” value in data set [2] is 29%.

On to `Cl.O=C(O)CCCN1CCC(OC(c2ccccc2)c2ccc(F)cc2)CC1` (racemic) [Example 115, (±)-4-[(4-Fluorophenyl)phenylmethoxy]-1-piperidinebutyric acid hydrochloride], for which the inhibition in vivo at 1 mg/kg in data set [1] turned out to be 73%. The “the percent increase” value in data set [2] came to 21%.

With `Cl.O=C(O)CCCCN1CCC(OC(c2ccccc2)c2ccc(F)cc2)CC1` (racemic) [Example 116, (±)-4-[(4-Fluorophenyl)phenylmethoxy]-1-piperidinevaleric acid hydrochloride], in data set [1], the inhibition in vivo at 1 mg/kg stood at 83%. Also, in data set [2], the “the percent increase” value is listed as 31%.

As for `COC(=O)CCCCCN1CCC(OC(c2ccccc2)c2ccc(C)cc2)CC1.Cl` (single isomer, unassigned; (+)) [Example 62, (+)-Methyl 4-[(4-methylphenyl)phenylmethoxy]-1-piperidinecaproate hydrochloride], the inhibition in vivo at 1 mg/kg in data set [1] was found to be 56%. Moreover, the “the percent increase” value in data set [2] was 29%.

Consider `Cc1ccc(C(OC2CCN(CCCCCC(=O)O)CC2)c2ccccc2)cc1.Cl` (single isomer, unassigned; (+)) [Example 125, (+)-4-[(4-Methylphenyl)phenylmethoxy]-1-piperidinecaproic acid hydrochloride], for which the inhibition in vivo at 1 mg/kg in data set [1] was determined as 55%. Further, in data set [2], the “the percent increase” value worked out at 29%.

With `Cc1ccc(C(OC2CCN(CCCCCC(=O)O)CC2)c2ccccc2)cc1.Cl` (single isomer, unassigned; (-)) [Example 126, (-)-4-[(4-Methylphenyl)phenylmethoxy]-1-piperidinecaproic acid hydrochloride], the “the percent inhibition of PCA in rats” value in data set [1] (1 mg/kg, p.o., hydrochloride) is 36%. Besides, the “the percent increase” value in data set [2] is on record as -1%.

Take `Cl.O=C(O)CCN1CCC(OC(c2ccccc2)c2ccccc2)CC1` [Example 65, 4-(Diphenylmethoxy)-1-piperidinepropionic acid hydrochloride]: the inhibition in vivo at 1 mg/kg in data set [1] is 62%. The “the percent increase” value in data set [2] came out at 29%.

Turning to `Cl.O=C(O)CCCCN1CCC(OC(c2ccc(F)cc2)c2ccc(F)cc2)CC1` [Example 120, 4-[Bis(4-fluorophenyl)methoxy]-1-piperidinevaleric acid hydrochloride], in data set [1], the inhibition in vivo at 1 mg/kg turned out to be 64%. The “the percent increase” value in data set [2] is -12%.

Consider `CN1CCC(OC(c2ccccc2)c2ccccc2)CC1` [Reference compound A, diphenylpyraline hydrochloride, reference compound], for which the inhibition in vivo at 1 mg/kg in data set [1] was -1%. The “the percent increase” value in data set [2] is given as 75%.

In the case of `CCOC(=O)Oc1ccc(C=CC=CC(=O)NCCN2CCC(OC(c3ccccc3)c3ccccc3)CC2)cc1OC` [Reference compound B, N-[2-[4-(diphenylmethoxy)piperidino]ethyl]-5-[4-(ethoxycarbonyloxy)-3-methoxyphenyl]-2,4-pentadienoylamide, reference compound], in data set [1], the inhibition in vivo at 1 mg/kg was 8%. The “the percent increase” value in data set [2] is 35%.

Source of the values: patent US5153207A, “Piperidine derivative, method for preparation thereof, and a pharmaceutical composition comprising the same” (Hokuriku Pharmaceutical Co., Ltd., priority 1989, dated 1992).
